Test results: patent publication EP0326134A1, “4-Amino-2,3-disubstituted-6,7-dihydro-5H-1-pyridine derivatives, process for their preparation and medicaments containing them” (NAUCHNO-ISSLEDOVATELSKY INSTITUT TEKHNOLOGII I BEZOPASNOSTI …, priority 1988, dated 1989)
Where a name gives a salt, the structure may show the parent alone. Read-outs that look alike come from different tables or passages of the source.

Columns and labels:
[1] = tested on: Na -Durchlässigkeit der Membrane des Ranvier-Schnürringes; experiment: Na+ permeability of the node of Ranvier membrane, voltage clamp; design: species or system Frosches; details: node of Ranvier, frog sciatic nerve fibres, voltage clamp; concentration giving 50 % block of ion permeability; read-out: Blockierung der Na^+-Durchlässigkeit der Membrane Ic50 (Mol)
Source text: (§1) Untersucht wurden die Wirkmechanismen der erfindungsgemäßen Verbindungen: • 1. Die Wirkung auf Acetylcholinesterase menschlicher Erythrozyten auf spektrofotometrischem Wege. • 2. Die Wirkung auf die K - und Na -Durchlässigkeit der Membrane des Ranvier-Schnürringes (s. Fox T.M. et al. "Modification of ionic membrane currrents of Ranvier nodes by UV-radiation under voltage clamp conditions", Experientia, 27, 1289-1290 /1971/ und Arhom P. et al. "Local anesthetics: effects on permeability properties of nodal membrane in myelynated nerve fibres from xenopus". Acta physiol. Scand. 91, 11-21 /1974/) der Nervenfasern des Hüftnervs des Frosches unter Anwendung der Methode der Messung der Membranspannung (Voltage-clampmethode) (s. Derksen H.E. "Axon membrane voltage fluctuations", Acta Physiol., Pharmacol Neer, 13, 373-466 /1965/).
(§2) Alle erfindungsgemäßen Verbindungen sind Blocker für die K^+-Durchlässigkeit der Membrane analog dem Amyridin. Die Salze der bicyclischen Basen blockieren jedoch stärker die Na -Durchlässigkeit der Membrane, was sich mit ihren sedativen und analgetischen Eigenschaften in Verbindung bringen läßt.

[2] = tested on: durch Skopolamin hervorgerufene Amnesie; experiment: Dark avoidance assay (passive avoidance), scopolamine-induced amnesia; format: in vivo, Mäusen; details: for antiamnestische Wirkung: in words, compared with Amyridin; for Einfluß auf das Gedächtnis: Zahl der Tiere in %, bei denen die Skopolaminwirkung aufgehoben wurde: mice, compound s.c. 5 min before learning, Skopolamin i.p. 30 min before
Method: Die Mäuse wurden dabei in den hellen Abschnitt der Kammer gegeben, wonach die Latenzzeit für den Übertritt in die dunkle Kammer, in der die Tiere einem Stromschlag von 0,5 mA ausgesetzt waren, registriert wurde. Danach erhöhte sich die Latenzzeit für den Übertritt in den dunklen Abschnitt und verringerte sich die Aufenthaltsdauer. 30 Minuten vor dem Versuch wurden den Mäusen i.p. […] Gedächtnisstörungen hervorrufendes Skopolamin als Cholinblocker injiziert. Die erfindungsgemäßen Verbindungen wurden s.c. 5 Minuten vor dem Lernvorgang injiziert. Das Skopolamin verkürzt die Latenzzeit für den Übertritt in die dunkle Kammer, die erfindungsgemäßen Verbindungen stellen jedoch die Latenzzeitwerte wie bei der Kontrollgruppe wieder her oder bedingen ein geringfügiges Überschreiten dieser Werte (siehe Tabelle 2). Gleichzeitig wird die Aufenthaltsdauer der Tiere im dunklen Abschnitt der Kammer auf 36 bis 45 Hundertstel des Ausgangswerts verringert.

[3] = Side effects and CNS/behaviour: tremor (TD50), sedative and m-cholinomimetic effects; format: in vivo; details: for selectivity ratio / TD50: in vivo; for selectivity ratio / Verhältnis TD50 zu ED50: ED50 = dose blocking the effect of Skopolamin in 50 % of the animals (passive avoidance, mice); for selectivity ratio: read-out: Verhältnis TD50 zu ED50; for TD50 / TD50 (Tremor): toxic dose causing tremor in 50 % of the animals
Source text: Von Interesse ist der Einfluß der erfindungsgemäßen Verbindungen auf das ZNS und das Verhalten der Tiere.

[4] = tested on: K -Durchlässigkeit der Membrane des Ranvier-Schnürringes; experiment: K+ permeability of the node of Ranvier membrane, voltage clamp; design: species or system Frosches; details: node of Ranvier, frog sciatic nerve fibres, voltage clamp; concentration giving 50 % block of ion permeability; read-out: Blockierung der K^+-Durchlässigkeit der Membrane Ic50 (Mol)
Source text: as §1, §2

Samenleiter der Ratte = experiment: Contractile activity of smooth muscle: rat vas deferens; details: Rattus norvegicus, Samenleiter der Ratte, n = 9, read-out: Adrenalin 1.10^-6: Amplitude, % bezogen auf d.Kontrolle; for activity at 100 µM: Konzentration 1.10^-4 Mol
Source text: (§3) In Versuchen an glattmpskulären Organen (Uterus, Samenleiter der Ratte und Krummdarm des Meerschweinchens) wurden die Wirkung der erfindungsgemäßen Verbindungen auf die kontraktile Aktivität der glatten Muskeln und ihre Reaktionen auf den Einfluß von Acetylcholin, Serotonin, Adrenalin und KCI als Agonisten untersucht. Mit Hilfe eines Schreibers wurden die Amplitude und die Dauer der Kontraktion der glatten Muskeln unter Verwendung eines Geräts vom Typ Mechanstron-untersucht.

[5] = molecular target: T1, Acetylcholinesterase menschlicher Erythrozyten (Homo sapiens, UniProt P22303); experiment: Acetylcholinesterase inhibition, spectrophotometric; format: biochemical; details: Acetylcholinesteraseinhibierung bei menschlichen Erythrozyten IK, (Mol), human erythrocyte enzyme
T1 construct: Acetylcholin-esteraseinhi-bierung bei menschlichen Erythrozyten; from tissue; host or cells: human erythrocytes
T1 sequence (P22303 other isoform, or with tags, fused parts or gaps): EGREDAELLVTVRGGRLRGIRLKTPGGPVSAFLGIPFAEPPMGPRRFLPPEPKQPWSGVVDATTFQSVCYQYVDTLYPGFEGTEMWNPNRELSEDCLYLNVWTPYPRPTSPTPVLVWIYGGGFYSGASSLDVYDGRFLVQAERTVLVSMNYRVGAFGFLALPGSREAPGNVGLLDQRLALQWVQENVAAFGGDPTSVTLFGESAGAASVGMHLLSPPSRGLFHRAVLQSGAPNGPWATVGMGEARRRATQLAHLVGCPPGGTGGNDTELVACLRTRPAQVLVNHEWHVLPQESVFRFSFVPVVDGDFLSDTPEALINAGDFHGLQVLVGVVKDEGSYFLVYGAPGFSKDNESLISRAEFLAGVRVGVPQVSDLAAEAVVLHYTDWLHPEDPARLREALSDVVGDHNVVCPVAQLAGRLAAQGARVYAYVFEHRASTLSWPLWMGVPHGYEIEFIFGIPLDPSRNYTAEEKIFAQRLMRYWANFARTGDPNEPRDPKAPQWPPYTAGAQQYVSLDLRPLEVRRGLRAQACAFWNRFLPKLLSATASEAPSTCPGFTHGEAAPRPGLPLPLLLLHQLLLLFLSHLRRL
Source text: Untersucht wurden die Wirkmechanismen der erfindungsgemäßen Verbindungen: • 1. Die Wirkung auf Acetylcholinesterase menschlicher Erythrozyten auf spektrofotometrischem Wege. • 2.

[6] = tested on: Nerven-Muskel-Präparat von Mäusen (n.peroneus-m.extensor digitorum longus); experiment: Neuromuscular transmission in isolated nerve-muscle preparation (EPP, minEPP); details: for Stimulierung der Nerven-Muskelübertragung, in % der Amplitude: EPP: EPP = Endplattenpotential
Source text: Der Einfluß der Stoffe auf die Nerven-Muskei-Übertragung wurde am isolierten Nerven-Muskel-Präparat von Mäusen (n.peroneus-m.extensor digitorum longus) (s. Bhattacharyya B. et al. "Neuromuscular blocking action of two hemicholinium-3 analogs" Europ. J. Pharmac. 146, 155-165 /1988/) untersucht, das von Lilly-Lösung perfundiert wurde, durch die man ein Gemisch von 02 und C02 leitete. […] Das Endplattenpotential (EPP) und das Endplattenminiaturpotential (minEPP) wurden mit Hilfe eines Magnetografen aufgezeichnet und danach mit dem Computer ausgewertet. Ermittelt wurden die Frequenz (f), die Amplitude (A) und die Dauer (t) der minEPP und der EPP (s. Tabelle 2).

Uterus der Ratte = experiment: Contractile activity of smooth muscle: rat uterus; details: n = 9; for activity at 100 µM: Konzentration 1.10^-4 Mol, read-out: Serotonin 1.10^-6 (Mol): Amplitude, % bezogen auf die Kontrolle
Source text: as §3

[7] = Acute toxicity, single intraperitoneal injection, probit analysis (LD50); format: in vivo, Mäusen; details: mice, i.p.
Source text: Ihre akute Toxizität wurde an Mäusen (einmalige intraperitoneale Injektion) nach der Methode der Probit-Analyse nach Zichtfield, Wilcoxon, t949 untersucht. In Tabelle 2 sind die Parameter der akuten Toxizität (LDso) angegeben, die eine mäßige Toxizität der erfindungsgemäßen Verbindungen belegen.

[8] = Rattus norvegicus, Uterus der Ratte
[9] = mouse, in vivo, ip, read-out: LD50

Structure (SMILES) | IC50 [1] [µM] | antiamnestische Wirkung [2] | Einfluß auf das Gedächtnis: Zahl der Tiere in %, bei denen die Skopolaminwirkung aufgehoben wurde [2] [%] | selectivity ratio [3] | TD50 [3] [mg/kg] | IC50 [4] [µM] | activity at 100 µM (Samenleiter der Ratte) [%] | Ki [5] [µM] | Stimulierung der Nerven-Muskelübertragung, in % der Amplitude: EPP [6] [%] | Stimulierung der Nerven-Muskelübertragung, in % der Amplitude: minEPP [6] [%] | activity at 100 µM (Uterus der Ratte; [8]) [%] | LD50 [7, 9] [mg/kg] | Verhältnis TD50 zu ED50 [3] | TD50 (Tremor) [3] [mg/kg] | LD50 [7] [mg/kg] | activity at 10 µM (Samenleiter der Ratte; Konzentration 1.10^-5 Mol) [%] | activity at 10 µM (Uterus der Ratte; Rattus norvegicus, Uterus der Ratte (as head prints), Konzentration 1.10^-5 Mol, ditto mark -"- repeats unverändert, read-out: Acetylcholin 1.10^-6 (Mol): Amplidude, % bezogen auf d. Kontrolle) [%] | Acetylcholin 1.10^-6 (Mol): Dauer, Min. (Uterus der Ratte; Uterus der Ratte (as head prints), Konzentration 1.10^-5 Mol) [Min.] | Serotonin 1.10^-6 (Mol): Dauer, Min. (Uterus der Ratte; Uterus der Ratte, Konzentration 1.10^-5 Mol) [Min.]
CNc1c(C)c(C)nc2c1CCC2 [Verbindung 19, 2,3-Dimethy)-4-methy)amino-6,7-dihydro-5H-1-pyrindinhydrat] | 2500 | antiamnestische Wirkung, welche die von Amyridin etwas übertraf | 70 | 4 | 12 | 1800 | 115 | 6.7 | 28 | 56 | 120 | 16 |  |  |  |  |  |  | 
Nc1c2c(nc3c1CCC3)CCC2 [Verbindung 37, 8-Amino-1,2,3,5,6,7-hexahydro-1-cyclopenta[b]pyrindinperchlorat] | 4200 |  | 68 |  |  | 450 |  | 0.15 | 30 | 66 |  |  | 8,2 | 18 | 38 |  |  |  | 
CCc1nc2c(c(N)c1C)CCC2 [Verbindung 28] | 150 |  | 80 |  |  | 120 |  | 6.1 | 22 | 48 |  |  | 11 | 20 | 40 |  |  |  | 
CCc1nc2c(c(N)c1C)CCC2 [Verbindung 27, 2-Ethyl-3-methyl-4-amino-6,7-dihydro-5H-1-pyrindinhydrat] | 380 | antiamnestische Wirkung, welche die von Amyridin etwas übertraf | 60 | 10 | 19 | 150 | 126 | 3.8 | 23 | 45 | 125 | 30 |  |  |  |  |  |  | 
Cc1nc2c(c(N)c1-c1ccccc1)CCC2 [Verbindung 33] | 5500 |  | 55 |  |  | 6500 | 128 | 48 | 20 | 42 | 140 |  | 2,4 | 15 | 25 |  |  |  | 
CCCc1c(C)nc2c(c1N)CCC2 [Verbindung 24] | 4200 |  | 68 | 3 | 10 | 4000 | 120 | 7.5 | 25 | 54 | 119 | 30 |  |  |  |  |  |  | 
CCc1c(C)nc2c(c1N)CCC2 [Verbindung 21, 2-Methyl-3-ethyl-4-amino-6,7-dihydro-5H-1-pyrindinhydrat] | 3200 | antiamnestische Wirkung, welche die von Amyridin etwas übertraf | 68 | 3.8 | 10 | 3500 | 115 | 7 | 25 | 58 | 118 | 30 |  |  |  |  |  |  | 
Nc1c2c(nc3c1CCC3)CCC2 [Verbindung 36, 8-Amino-1,2,3,5,6,7-hexahydro-1-cyclopenta[b]pyrindin-hydrochlorid] | 5200 |  | 65 | 7.5 | 15 | 420 |  | 0.11 | 20 | 60 |  | 36 |  |  |  | 160 | 140 |  | 
Nc1c2c(nc3c1CCC3)CCCCC2 [Verbindung 39] | 5000 |  | 72 |  |  | 480 |  | 0.56 | 25 | 60 |  |  | 7,2 | 18 | 50 |  |  | 22±0.6 | 28±0.5
CCc1nc2c(c(N)c1C)CCC2 [Verbindung 30] | 350 |  | 75 |  |  | 280 |  | 5.1 | 24 | 45 |  |  | 11 | 22 | 40 |  |  |  | 
CCc1nc2c(c(N)c1C)CCC2 [Verbindung 29] | 300 |  | 70 |  |  | 200 |  | 6 | 18 | 40 |  |  | 12 | 22 | 35 |  |  |  | 
CCNc1c(C)c(C)nc2c1CCC2 [Verbindung 20, 2,3-Dimethyl-4-ethylamino-6,7-dihydro-5H-1-pyrindin] | 2800 | antiamnestische Wirkung, welche die von Amyridin etwas übertraf | 65 | 3.8 | 10 | 2200 | 120 | 7 | 30 | 58 | 125 | 18 |  |  |  |  |  |  | 
